Laboratory results: PMC3005762 (Chemical communications (Cambridge, England), 2010)

Molecular target: T1, DC-SIGN (Homo sapiens, UniProt Q9NNX6)
T1 sequence (Q9NNX6 59-404 limits assumed): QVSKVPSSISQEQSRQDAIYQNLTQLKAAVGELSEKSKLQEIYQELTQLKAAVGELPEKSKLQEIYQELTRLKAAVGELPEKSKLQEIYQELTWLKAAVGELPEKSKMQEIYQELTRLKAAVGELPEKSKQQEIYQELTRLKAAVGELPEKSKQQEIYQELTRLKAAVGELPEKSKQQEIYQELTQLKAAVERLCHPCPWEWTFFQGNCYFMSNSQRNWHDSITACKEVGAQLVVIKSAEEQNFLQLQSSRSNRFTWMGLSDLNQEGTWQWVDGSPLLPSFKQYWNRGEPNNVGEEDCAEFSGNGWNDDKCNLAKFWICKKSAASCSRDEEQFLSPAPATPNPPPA
Format: binding

IC50: 11.2 ± 0.7 mM
Structure (SMILES): CC(=O)N[C@@H]1C(O)O[C@H](CO)[C@@H](O)[C@@H]1O (stereo partly shown) [N-acetylmannosamine]
